From patent publication US7432388B2 (Allergan, Inc., priority 2003, dated 2008)

Experiments:
Assay in all cases: ligand binding assay
RARγ = molecular target: T1, RARγ (Homo sapiens, UniProt P13631); settings: expressed in Ki numbers, read-out: RAR Binding γ
T1 sequence (P13631 1-454): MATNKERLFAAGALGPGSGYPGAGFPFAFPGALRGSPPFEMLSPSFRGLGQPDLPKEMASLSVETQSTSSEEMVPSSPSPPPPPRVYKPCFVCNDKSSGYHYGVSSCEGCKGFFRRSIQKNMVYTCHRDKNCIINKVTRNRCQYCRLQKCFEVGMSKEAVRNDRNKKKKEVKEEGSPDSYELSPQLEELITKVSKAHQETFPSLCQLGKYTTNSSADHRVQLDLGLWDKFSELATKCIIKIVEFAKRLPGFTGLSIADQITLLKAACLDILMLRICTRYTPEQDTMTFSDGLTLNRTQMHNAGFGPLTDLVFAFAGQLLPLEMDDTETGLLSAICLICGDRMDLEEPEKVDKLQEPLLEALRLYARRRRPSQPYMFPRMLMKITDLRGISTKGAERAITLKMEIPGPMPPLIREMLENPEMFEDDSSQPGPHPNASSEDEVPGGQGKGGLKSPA
Procedure: The results obtained in this assay are expressed in EC50 numbers, as they are also in the chimeric receptor transactivation assay. The other functional assay running in the presence of 1 nM all-trans retinoic acid, namely PGA-RAR antagonist assay (utilizing glucocorticoid-retinoid chimeric receptors), is a modified chimeric receptor transactivation assay which tests the compounds for their antagonist-like activity in the RARα, RARγ and RARγ receptor subtypes.
The results of the ligand binding assay are expressed in Ki numbers.

RARα = molecular target: T2, RARα (Homo sapiens, UniProt P10276); settings: expressed in Ki numbers, read-out: RAR Binding α
T2 sequence (P10276 1-462): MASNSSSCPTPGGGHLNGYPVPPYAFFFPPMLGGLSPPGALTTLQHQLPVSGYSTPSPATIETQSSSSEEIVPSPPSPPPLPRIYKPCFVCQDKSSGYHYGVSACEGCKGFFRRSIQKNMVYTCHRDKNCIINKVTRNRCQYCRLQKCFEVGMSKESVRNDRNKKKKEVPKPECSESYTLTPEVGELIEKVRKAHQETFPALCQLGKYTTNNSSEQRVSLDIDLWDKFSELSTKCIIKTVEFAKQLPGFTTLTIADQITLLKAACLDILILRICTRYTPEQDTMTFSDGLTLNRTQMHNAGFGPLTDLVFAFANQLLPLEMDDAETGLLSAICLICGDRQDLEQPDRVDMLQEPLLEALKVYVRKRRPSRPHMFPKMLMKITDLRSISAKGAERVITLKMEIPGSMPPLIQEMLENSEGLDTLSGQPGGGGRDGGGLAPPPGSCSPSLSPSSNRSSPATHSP
Source text: (§1) A holoreceptor transactivation assay and a ligand binding assay which measure the antagonist/agonist like activity of the compounds of the invention, or their ability to bind to the several retinoid receptor subtypes, respectively, are described in published PCT Application No. WO WO93/11755 (particularly on pages 30-33 and 37-41) published on Jun. 24, 1993, the specification of which is also incorporated herein by reference. A detailed experimental procedure for holoreceptor transactivations has been described by Heyman et al. Cell 68, 397-406, (1992); Allegretto et al. J. Biol. Chem. 268, 26625-26633, and Mangelsdorf et al. The Retinoids: Biology, Chemistry and Medicine, pp 319-349, Raven Press Ltd., New York, which are expressly incorporated herein by reference. The results obtained in this assay are expressed in EC50 numbers, as they are also in the chimeric receptor transactivation assay. The other functional assay running in the presence of 1 nM all-trans retinoic acid, namely PGA-RAR antagonist assay (utilizing glucocorticoid-retinoid chimeric receptors), is a modified chimeric receptor transactivation assay which tests the compounds for their antagonist-like activity in the RARα, RARγ and RARγ receptor subtypes. The results from this assay are normally expressed in IC50 numbers (See Teng et al. J. Med. Chem. 40, 2445-2452, (1997) incorporated herein by reference.)
(§2) The results of the ligand binding assay are expressed in Ki numbers. (See Cheng et al. Biochemical Pharmacology Vol. 22 pp 3099-3108, expressly incorporated herein by reference.)

RARβ = molecular target: T3, RARβ (Homo sapiens, UniProt P10826); settings: expressed in Ki numbers, read-out: RAR Binding β
T3 sequence (P10826 1-455): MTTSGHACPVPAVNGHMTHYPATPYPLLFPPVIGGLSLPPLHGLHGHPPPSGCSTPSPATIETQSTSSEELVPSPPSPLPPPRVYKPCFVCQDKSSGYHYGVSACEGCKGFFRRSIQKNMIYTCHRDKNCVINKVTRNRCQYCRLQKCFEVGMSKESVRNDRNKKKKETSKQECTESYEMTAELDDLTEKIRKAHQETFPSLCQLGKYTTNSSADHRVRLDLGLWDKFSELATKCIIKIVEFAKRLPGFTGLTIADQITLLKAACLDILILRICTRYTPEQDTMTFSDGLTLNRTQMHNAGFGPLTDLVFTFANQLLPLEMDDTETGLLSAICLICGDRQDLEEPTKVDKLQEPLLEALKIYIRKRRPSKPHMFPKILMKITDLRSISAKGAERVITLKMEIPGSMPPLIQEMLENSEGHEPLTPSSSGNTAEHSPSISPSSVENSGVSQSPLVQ
Source text: as §1, §2

Row | Ki (RARγ) | Ki (RARα) | Ki (RARβ) | SMILES
1 | 0.006 µM | 2.9 µM | 1.3 µM | Cc1ccc(C2=CCC(C)(C)c3cc(C(/C=C/c4ccc(C(=O)O)cc4)=NO)ccc32)cc1 (racemic) [Compound 7c, 4-[3-(8,8-Dimethyl-5-p-tolyl-7,8-dihydro-naphthalen-2-yl)-3-hydroxyimino-propenyl]-benzoic acid]
2 | 0.003 µM | 3 µM | 5 µM | Cc1ccc(C2=CCC(C)(C)c3cc(C(/C=C/c4ccc(C(=O)O)cc4)=N/O)ccc32)cc1 [Compound 7a, E-4-[3-(8,8-Dimethyl-5-p-tolyl-7,8-dihydro-naphthalen-2-yl)-3-hydroxyimino-propenyl]-benzoic acid]
3 | 0.029 µM | 5.2 µM | 1.9 µM | Cc1ccc(C2=CCC(C)(C)c3cc(C(/C=C/c4ccc(C(=O)O)cc4)=N\O)ccc32)cc1 [Compound 7b, Z-4-[3-(8,8-dimethyl-5-p-tolyl-7,8-dihydro-naphthalen-2-yl)-3-hydroxyimino-propenyl]-benzoic acid]
4 | 0.011 µM | 13 µM | 15 µM | Cc1ccc(C2=CCC(C)(C)c3cc(C(/C=C/c4ccc(C(=O)O)cc4F)=N/O)ccc32)cc1 [Compound 9a, E-4-[3-(8,8-Dimethyl-5-p-tolyl-7,8-dihydro-naphthalen-2-yl)-3-hydroxyimino-propenyl]-3-fluoro-benzoic acid]
5 | 0.133 µM | 13 µM | 10 µM | Cc1ccc(C2=CCC(C)(C)c3cc(C(/C=C/c4ccc(C(=O)O)cc4F)=N\O)ccc32)cc1 [Compound 9b, Z-4-[3-(8,8-Dimethyl-5-p-tolyl-7,8-dihydro-naphthalen-2-yl)-3-hydroxyimino-propenyl]-3-fluoro-benzoic acid]
6 | 0.025 µM | 9 µM | 10 µM | Cc1ccc(C2=CC(C)(C)c3cc(C(/C=C/c4ccc(C(=O)O)cc4)=N/O)ccc32)cc1 [Compound 16a]
7 | 0.145 µM | 7 µM | 10 µM | Cc1ccc(C2=CC(C)(C)c3cc(C(/C=C/c4ccc(C(=O)O)cc4)=N\O)ccc32)cc1 [Compound 16b]
8 | 0.07 µM | 12 µM | 10 µM | Cc1ccc(C2=CC(C)(C)c3cc(C(/C=C/c4ccc(C(=O)O)cc4F)=N/O)ccc32)cc1 [Compound 18a, E-4-[3-(3,3-Dimethyl-1-p-tolyl-3H-inden-5-yl)-3-hydroxyimino-propenyl]-3-fluoro-benzoic acid]
9 | 0.717 µM | 23 µM | 10 µM | Cc1ccc(C2=CC(C)(C)c3cc(C(/C=C/c4ccc(C(=O)O)cc4F)=N\O)ccc32)cc1 [Compound 18b, Z-4-[3-(3,3-Dimethyl-1-p-tolyl-3H-inden-5-yl)-3-hydroxyimino-propenyl]-3-fluoro-benzoic acid]
